biological target: T1, human Nav1.8 (Homo sapiens, UniProt Q9Y5Y9); assay: Nav1.8 sodium channels assay, QPatch 48 HTX electrophysiology in HEK293-Nav1.8 cells; assay type: cell-based; conditions: at least one set of experimental runs; read-out: average pIC50 value against Nav1.8 (converted)
T1 construct: expressed in transfected cells; host or cells: HEK293 (HEK293-Nav1.8)
How it was run: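 HEK293 cells co-expressing human Nav1.8, Navβ1 and TREK1 were voltage-clamped on QPatch 48 HTX. The V1/2 protocol ran at 0.07 Hz: hold −100 mV, 20 ms to 0 mV, 8 s at −46 mV, 20 ms at −100 mV, then 20 ms at 0 mV (P2). P2 current was fitted over 6-8 concentrations for IC50, with vehicle wells used to correct for run-down.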

T1 sequence (Q9Y5Y9 whole entry): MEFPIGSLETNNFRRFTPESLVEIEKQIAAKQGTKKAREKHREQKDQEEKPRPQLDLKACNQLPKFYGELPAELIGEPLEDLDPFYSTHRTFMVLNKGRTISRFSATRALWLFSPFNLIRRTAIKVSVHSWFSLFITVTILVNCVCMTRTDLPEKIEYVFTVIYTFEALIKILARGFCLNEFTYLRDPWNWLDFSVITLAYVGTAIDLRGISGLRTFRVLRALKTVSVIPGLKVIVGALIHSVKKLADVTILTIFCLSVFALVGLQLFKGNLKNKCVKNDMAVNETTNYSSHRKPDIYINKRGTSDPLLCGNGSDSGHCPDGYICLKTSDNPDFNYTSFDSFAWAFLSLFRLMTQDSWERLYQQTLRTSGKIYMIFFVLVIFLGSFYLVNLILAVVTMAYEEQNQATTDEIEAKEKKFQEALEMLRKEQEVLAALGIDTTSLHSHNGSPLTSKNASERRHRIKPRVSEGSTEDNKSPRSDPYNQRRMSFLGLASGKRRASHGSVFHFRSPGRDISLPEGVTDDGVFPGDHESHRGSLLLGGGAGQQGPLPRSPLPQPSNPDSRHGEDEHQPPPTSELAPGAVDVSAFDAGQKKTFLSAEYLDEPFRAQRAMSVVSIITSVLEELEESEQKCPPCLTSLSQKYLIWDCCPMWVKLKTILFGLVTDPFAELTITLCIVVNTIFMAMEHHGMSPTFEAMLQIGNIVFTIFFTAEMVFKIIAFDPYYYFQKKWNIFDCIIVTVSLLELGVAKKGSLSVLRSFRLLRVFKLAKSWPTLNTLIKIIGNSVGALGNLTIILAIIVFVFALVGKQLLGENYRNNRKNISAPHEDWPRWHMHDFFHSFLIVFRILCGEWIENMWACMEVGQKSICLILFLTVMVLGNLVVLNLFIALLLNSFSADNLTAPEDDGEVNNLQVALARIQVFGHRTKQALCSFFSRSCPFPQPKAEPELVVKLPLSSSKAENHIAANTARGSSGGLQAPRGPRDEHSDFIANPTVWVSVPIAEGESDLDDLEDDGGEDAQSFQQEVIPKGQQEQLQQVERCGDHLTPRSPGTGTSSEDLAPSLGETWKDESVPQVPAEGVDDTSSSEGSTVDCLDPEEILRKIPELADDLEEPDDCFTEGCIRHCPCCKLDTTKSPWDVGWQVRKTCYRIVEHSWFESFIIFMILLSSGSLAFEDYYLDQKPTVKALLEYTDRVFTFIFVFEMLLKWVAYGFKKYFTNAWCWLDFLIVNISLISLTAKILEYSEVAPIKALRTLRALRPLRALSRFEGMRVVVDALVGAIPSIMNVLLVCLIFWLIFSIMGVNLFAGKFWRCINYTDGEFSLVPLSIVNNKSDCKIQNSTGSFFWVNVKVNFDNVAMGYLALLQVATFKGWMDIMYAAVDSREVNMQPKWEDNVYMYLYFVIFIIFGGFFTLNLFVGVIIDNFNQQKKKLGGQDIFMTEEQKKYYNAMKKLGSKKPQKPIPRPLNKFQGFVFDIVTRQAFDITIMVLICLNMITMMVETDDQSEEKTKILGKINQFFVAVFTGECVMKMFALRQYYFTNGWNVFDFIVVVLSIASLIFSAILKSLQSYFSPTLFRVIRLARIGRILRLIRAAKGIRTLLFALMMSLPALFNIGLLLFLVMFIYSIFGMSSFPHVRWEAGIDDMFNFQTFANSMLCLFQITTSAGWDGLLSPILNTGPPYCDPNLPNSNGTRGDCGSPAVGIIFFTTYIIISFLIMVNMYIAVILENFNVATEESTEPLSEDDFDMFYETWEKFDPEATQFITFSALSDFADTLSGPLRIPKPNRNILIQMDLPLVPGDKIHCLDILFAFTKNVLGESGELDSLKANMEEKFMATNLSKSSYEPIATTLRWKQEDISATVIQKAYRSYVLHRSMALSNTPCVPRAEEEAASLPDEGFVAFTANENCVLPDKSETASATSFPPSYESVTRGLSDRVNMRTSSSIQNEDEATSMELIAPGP
T1 sequence (Q07699 19-218 partner): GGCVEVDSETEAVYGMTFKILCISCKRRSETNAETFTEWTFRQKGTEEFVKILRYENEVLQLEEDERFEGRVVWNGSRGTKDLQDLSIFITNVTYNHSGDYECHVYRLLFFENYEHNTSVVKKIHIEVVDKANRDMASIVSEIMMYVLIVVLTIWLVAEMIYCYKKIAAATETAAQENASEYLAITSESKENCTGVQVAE

Question: With Cc1cc(C(F)(F)F)ccc1N1CN(c2ccc(=O)[nH]c2C)C(=O)c2cc(C(F)(F)F)cnc21 [Example 195, 1-(2-methyl-4-(trifluoromethyl)phenyl)-3-(2-methyl-6-oxo-1,6-dihydropyridin-3-yl)-6-(trifluoromethyl)-2,3-dihydropyrido[2,3-d]pyrimidin-4(1H)-one] as the compound, how does the IC50 read?
Answer: 794 to 7940 nM

Question: How did the IC50 turn out when Cc1cc(Cl)ccc1N1CN(c2ccc(=O)[nH]c2C)C(=O)c2cc(C(F)(F)F)cnc21 [Example 196, 1-(4-chloro-2-methylphenyl)-3-(2-methyl-6-oxo-1,6-dihydropyridin-3-yl)-6-(trifluoromethyl)-2,3-dihydropyrido[2,3-d]pyrimidin-4(1H)-one] was run?
Answer: 126 to 631 nM

Question: With Cc1cc(F)ccc1N1CN(c2ccc(=O)[nH]c2C)C(=O)c2ccc(C(F)(F)CO)cc21 [Example 197, 7-(1,1-difluoro-2-hydroxyethyl)-1-(4-fluoro-2-methylphenyl)-3-(2-methyl-6-oxo-1,6-dihydropyridin-3-yl)-2,3-dihydroquinazolin-4(1H)-one] as the compound, how does the IC50 read?
Answer: 794 to 7940 nM

Question: For Cc1cc(F)ccc1N1CN(c2ccc(=O)[nH]c2C(C)C)C(=O)c2ccc(C(F)(F)F)cc21 [Example 198, 1-(4-fluoro-2-methylphenyl)-3-(2-isopropyl-6-oxo-1,6-dihydropyridin-3-yl)-7-(trifluoromethyl)-2,3-dihydroquinazolin-4(1H)-one], which IC50 is on record?
Answer: ≤ 100 nM

Question: With Cc1cc(F)ccc1N1CN(c2ccc(=O)[nH]c2NCCO)C(=O)c2ccc(C(F)(F)F)cc21 [Example 199, 1-(4-fluoro-2-methylphenyl)-3-(2-((2-hydroxy-ethyl)amino)-6-oxo-1,6-dihydropyridin-3-yl)-7-(trifluoromethyl)-2,3-dihydroquinazolin-4(1H)-one] as the compound, how does the IC50 read?
Answer: 126 to 631 nM

Question: With Cc1[nH]c(=O)ccc1N1CN(c2ccc(F)cc2N(C)C)c2ccc(Cl)cc2C1=O [Example 200, 6-chloro-1-(2-(dimethylamino)-4-fluorophenyl)-3-(2-methyl-6-oxo-1,6-dihydropyridin-3-yl)-2,3-dihydroquinazolin-4(1H)-one] as the compound, how does the IC50 read?
Answer: ≤ 100 nM

Question: With CNc1cc(F)ccc1N1CN(c2ccc(=O)[nH]c2C)C(=O)c2cc(Cl)ccc21 [Example 201, 6-chloro-1-(4-fluoro-2-(methylamino)phenyl)-3-(2-methyl-6-oxo-1,6-dihydropyridin-3-yl)-2,3-dihydroquinazolin-4(1H)-one] as the compound, how does the IC50 read?
Answer: ≤ 100 nM

Question: How did the IC50 turn out when Cc1cc(C(F)(F)CO)ccc1N1CN(c2ccc(=O)[nH]c2C)C(=O)c2ccc(C(F)(F)F)cc21 [Example 202, 1-(4-(1,1-difluoro-2-hydroxyethyl)-2-methylphenyl)-3-(2-methyl-6-oxo-1,6-dihydropyridin-3-yl)-7-(trifluoromethyl)-2,3-dihydroquinazolin-4(1H)-one] was run?
Answer: 794 to 7940 nM

Question: For Cc1ccc(N2CN(c3ccc(=O)[nH]c3C)C(=O)c3ccc(C(F)(F)F)cc32)c(C)c1 [Example 203, 1-(2,4-dimethylphenyl)-3-(2-methyl-6-oxo-1,6-dihydropyridin-3-yl)-7-(trifluoromethyl)-2,3-dihydroquinazolin-4(1H)-one], which IC50 is on record?
Answer: ≤ 100 nM

Question: How did the IC50 turn out when Cc1cc(F)ccc1N1CN(c2ccc[nH]c2=O)C(=O)c2ccc(C(F)(F)F)cc21 [Example 204, 1-(4-fluoro-2-methylphenyl)-3-(2-oxo-1,2-dihydropyridin-3-yl)-7-(trifluoromethyl)-2,3-dihydroquinazolin-4(1H)-one] was run?
Answer: 794 to 7940 nM

Question: With Cc1cc(F)ccc1N1CN(c2cnc(=O)[nH]c2C)C(=O)c2ccc(OC(F)(F)F)cc21 [Example 205, 1-(4-fluoro-2-methylphenyl)-3-(6-methyl-2-oxo-1,2-dihydropyrimidin-5-yl)-7-(trifluoromethoxy)-2,3-dihydroquinazolin-4(1H)-one] as the compound, how does the IC50 read?
Answer: ≤ 100 nM

Question: How did the IC50 turn out when Cc1ccc2c(n1)N(c1ccc(F)cc1C)CN(c1ccc(=O)[nH]c1C)C2=O [Example 206, 1-(4-fluoro-2-methylphenyl)-7-methyl-3-(2-methyl-6-oxo-1,6-dihydropyridin-3-yl)-2,3-dihydropyrido[2,3-d]pyrimidin-4(1H)-one] was run?
Answer: 126 to 631 nM

Question: Which IC50 does the source give for CCc1cc(F)ccc1N1CN(c2ccc(=O)[nH]c2C)C(=O)c2cc(Cl)c(C#N)nc21 [Example 207, 6-chloro-1-(2-ethyl-4-fluorophenyl)-3-(2-methyl-6-oxo-1,6-dihydropyridin-3-yl)-4-oxo-1,2,3,4-tetrahydropyrido [2,3-d]pyrimidine-7-carbonitrile] here?
Answer: ≤ 100 nM

Question: With Cc1cc(F)ccc1N1CN(c2ccc(=O)n(C)c2C)C(=O)c2cc(C(F)(F)F)ccc21 [Example 209, 3-(1,2-dimethyl-6-oxo-1,6-dihydropyridin-3-yl)-1-(4-fluoro-2-methylphenyl)-6-(trifluoromethyl)-2,3-dihydroquinazolin-4(1H)-one] as the compound, how does the IC50 read?
Answer: 126 to 631 nM

Question: How did the IC50 turn out when Cc1cc(F)ccc1N1CN(c2ccc(=O)[nH]c2Cl)C(=O)c2cc(C(F)(F)F)ccc21 [Example 210, 3-(2-chloro-6-oxo-1,6-dihydropyridin-3-yl)-1-(4-fluoro-2-methylphenyl)-6-(trifluoromethyl)-2,3-dihydroquinazolin-4(1H)-one] was run?
Answer: 126 to 631 nM

Question: For Cc1cc(F)ccc1N1CN(c2c(C)cc(=O)[nH]c2Br)C(=O)c2ccc(C(F)(F)F)cc21 [Example 211, 3-(2-bromo-4-methyl-6-oxo-1,6-dihydropyridin-3-yl)-1-(4-fluoro-2-methylphenyl)-7-(trifluoromethyl)-2,3-dihydroquinazolin-4(1H)-one], which IC50 is on record?
Answer: 794 to 7940 nM

Question: With Cc1[nH]c(=O)ccc1N1CN(c2ccc(F)cc2C(C)C)c2nc(C(F)(F)F)ccc2C1=O [Example 212, 1-(4-fluoro-2-isopropylphenyl)-3-(2-methyl-6-oxo-1,6-dihydropyridin-3-yl)-7-(trifluoromethyl)-2,3-dihydropyrido[2,3-d]pyrimidin-4(1H)-one] as the compound, how does the IC50 read?
Answer: ≤ 100 nM

Question: Cc1[nH]c(=O)ccc1N1CN(c2ccc(F)cc2C(C)C)c2ncc(Cl)cc2C1=O [Example 213, 6-chloro-1-(4-fluoro-2-isopropylphenyl)-3-(2-methyl-6-oxo-1,6-dihydropyridin-3-yl)-2,3-dihydropyrido[2,3-d]pyrimidin-4(1H)-one] was tested. Which IC50 did it give?
Answer: 126 to 631 nM

Question: Which IC50 does the source give for Cc1cc(F)ccc1N1CN(c2ccc(=O)[nH]c2C)C(=S)c2ccc(C(F)(F)F)cc21 [Example 214, 5-(1-(4-fluoro-2-methylphenyl)-4-thioxo-7-(trifluoromethyl)-1,4-dihydroquinazolin-3(2H)-yl)-6-methylpyridin-2(1H)-one] here?
Answer: ≤ 100 nM

Question: Cc1cc(F)ccc1N1CN(c2ccc(=O)[nH]c2)C(=O)c2cc(C(F)(F)F)ccc21 [Example 215, 1-(4-Fluoro-2-methylphenyl)-3-(6-oxo-1,6-dihydropyridin-3-yl)-6-(trifluoromethyl)-2,3-dihydroquinazolin-4(1H)-one] was tested. Which IC50 did it give?
Answer: 126 to 631 nM

Question: With COc1cc(F)ccc1N1CN(c2ccc(=O)[nH]c2)C(=O)c2ccc(C(F)(F)F)cc21 [Example 216, 1-(4-fluoro-2-methoxyphenyl)-3-(6-oxo-1,6-dihydropyridin-3-yl)-7-(trifluoromethyl)-2,3-dihydroquinazolin-4(1H)-one] as the compound, how does the IC50 read?
Answer: 126 to 631 nM

Question: Cc1cc(F)ccc1N1CN(c2ccc(=O)[nH]c2)C(=O)c2c1cccc2C(F)(F)F [Example 217, 1-(4-fluoro-2-methylphenyl)-3-(6-oxo-1,6-dihydropyridin-3-yl)-5-(trifluoromethyl)-2,3-dihydroquinazolin-4(1H)-one] was tested. Which IC50 did it give?
Answer: 794 to 7940 nM

Question: For Cc1cc(F)ccc1N1CN(c2c[nH]c(=O)c(C)c2)C(=O)c2ccc(C(F)(F)F)cc21 [Example 218, 1-(4-fluoro-2-methylphenyl)-3-(5-methyl-6-oxo-1,6-dihydropyridin-3-yl)-7-(trifluoromethyl)-2,3-dihydroquinazolin-4(1H)-one], which IC50 is on record?
Answer: 126 to 631 nM

Question: For Cc1cc(F)ccc1N1CN(c2ccc(=O)[nH]n2)C(=O)c2ccc(C(F)(F)F)cc21 [Example 219, 1-(4-fluoro-2-methylphenyl)-3-(6-oxo-1,6-dihydropyridazin-3-yl)-7-(trifluoromethyl)-2,3-dihydroquinazolin-4(1H)-one], which IC50 is on record?
Answer: 794 to 7940 nM

Question: Which IC50 does the source give for O=C1c2ccc(C(F)(F)F)cc2N(Cc2ccc(F)cc2)CN1c1ccc(=O)[nH]c1 [Example 220, 1-(4-fluorobenzyl)-3-(6-oxo-1,6-dihydropyridin-3-yl)-7-(trifluoromethyl)-2,3-dihydroquinazolin-4(1H)-one] here?
Answer: 794 to 7940 nM

Question: For Cc1cc(=O)[nH]cc1N1CN(c2ccc(F)cc2C)c2cc(C(F)(F)F)ccc2C1=O [Example 221, 1-(4-fluoro-2-methylphenyl)-3-(4-methyl-6-oxo-1,6-dihydropyridin-3-yl)-7-(trifluoromethyl)-2,3-dihydroquinazolin-4(1H)-one], which IC50 is on record?
Answer: 126 to 631 nM

Question: How did the IC50 turn out when Cc1cc(F)ccc1N1CN(c2ccc(=O)[nH]c2)C(=O)c2ccc(C#N)cc21 [Example 222, 1-(4-fluoro-2-methylphenyl)-4-oxo-3-(6-oxo-1,6-dihydropyridin-3-yl)-1,2,3,4-tetrahydro-quinazoline-7-carbonitrile] was run?
Answer: 794 to 7940 nM

Question: With COc1cc(F)ccc1N1CN(c2ccc(=O)[nH]c2)C(=O)c2c1cccc2C(F)(F)F [Example 223, 1-(4-fluoro-2-methoxyphenyl)-3-(6-oxo-1,6-dihydropyridin-3-yl)-5-(trifluoromethyl)-2,3-dihydroquinazolin-4(1H)-one] as the compound, how does the IC50 read?
Answer: 794 to 7940 nM

Question: Cc1ncsc1N1CN(c2ccc(=O)[nH]c2C)C(=O)c2cc(C(F)(F)F)ccc21 [Example 224, 3-(2-methyl-6-oxo-1,6-dihydropyridin-3-yl)-1-(4-methylthiazol-5-yl)-6-(trifluoromethyl)-2,3-dihydroquinazolin-4(1H)-one] was tested. Which IC50 did it give?
Answer: 794 to 7940 nM

Question: Which IC50 does the source give for COc1ccc(N2CN(c3ccc(=O)[nH]c3C)C(=O)c3cc(C(F)(F)F)ccc32)c(OC)c1 [Example 225, 1-(2,4-dimethoxyphenyl)-3-(2-methyl-6-oxo-1,6-dihydropyridin-3-yl)-6-(trifluoromethyl)-2,3-dihydroquinazolin-4(1H)-one] here?
Answer: ≤ 100 nM

Source: patent US20230103791A1 (GLAXOSMITHKLINE INTELLECTUAL PROPERTY DEVELOPMENT LIMITED, priority 2019, published 2023)
